The results in this text go back to US20210038730A1, “PEPTIDE NANOFIBERS” (UNIVERSITY OF PORTSMOUTH HIGHER EDUCATION CORPORATION, priority 2018, published 2021).

Experiment [1] concerns the target T1, GnRH-R expressed on glioblastoma cells (Homo sapiens, UniProt P30968).
T1 construct: GnRH peptides to the GnRH-R expressed on glioblastoma cells; endogenous in cells; host or cells: U-87 MG, UP-007, UP-029, SEBTA-023 glioblastoma cells (living)
T1 sequence (P30968 1-328): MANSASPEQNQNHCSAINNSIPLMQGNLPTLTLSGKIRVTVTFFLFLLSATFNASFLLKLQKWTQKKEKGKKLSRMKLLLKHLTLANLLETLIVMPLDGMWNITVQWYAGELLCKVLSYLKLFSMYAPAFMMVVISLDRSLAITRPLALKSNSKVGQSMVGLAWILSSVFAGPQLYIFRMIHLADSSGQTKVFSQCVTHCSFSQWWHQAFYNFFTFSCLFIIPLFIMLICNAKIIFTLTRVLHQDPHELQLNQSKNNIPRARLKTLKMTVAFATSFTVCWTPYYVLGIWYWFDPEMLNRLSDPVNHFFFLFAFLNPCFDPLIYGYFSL
Nature of the experiment: Receptor binding by single molecule force spectroscopy. The following applies: for koff: read-out: Dissociation Rate (Koff). On the procedure: The binding of the GnRH analogues to GnRH-R was assessed using single molecule force spectroscopy (SMFS) and Topography and Recognition (TREC) imaging based on AFM. AFM tips were functionalised with Glu-GnRH, goserelin acetate and […] as a monomer and nanofibers using a previously described method ^9, 10. Silicon nitride (6-20 pN/nm spring constant, Bruker, Mass., USA) and magnetically coated […] tips (Keysight, Calif., USA) were used for SMFS and TREC studies, respectively. […] Subsequently, acetal groups were converted into aldehyde groups by immersing the tips in a 1% (w/v) citric acid solution for 10 minutes. […] Following an incubation of 2 hours, the free aldehyde groups were inactivated by ethanolamine for 10 minutes. AFM tips were washed with PBS three times and stored at 4° C. […] Loading rates were calculated by multiplying the pulling velocity (v) with the effective spring constant (keff). Spring constants were determined by the thermal-noise method. The force-distance curves were acquired using PicoView 1.12 (Agilent Technologies, Inc., California, USA) and analysed in Matlab 8.1 software (MathWorks, Massachusetts, USA). […] Amplitude-distance curves were collected on a glass coverslip to adjust the free oscillation amplitude, and to determine the optimal amplitude reduction value for driving the feedback loop during the imaging. Free amplitude of cantilever oscillation was 30 nm and the excitation frequency was set to 9 kHz.

A further experiment has as its system U-87 MG cells. Briefly: Apoptosis (Annexin V-FITC). It counts as cell-based, human. The following applies: >7 μM, every two days, 6 days of treatment. On the procedure:
In vitro antitumour effects of TPGnRH and PAX-loaded TPGnRH were assessed in U-87 MG cells, UP-007, UP-029, SEBTA-023 MDA-MD-231 [triple negative (ER^−, PR—, HER2^−) breast cancer cell line] and SK-OV-3 (human ovarian carcinoma with a low expression of GnRH-R). Cells were seeded at 1,400 cells/cm^2 and allowed to attach and grow for 3 days. In experiments with TPGnRH nanofibers alone (to obtain the IC50 value in each cell line), cells were treated with medium supplemented with the peptide solutions in PBS (0.7 to 700 μM) to achieve a final concentration of 0.07 to 70 μM per well. Media was replaced by fresh media every two days for 6 days. […] On day 4, PAX-loaded TPGnRH nanofibers containing 1 nM of PAX and 7 or 35 μM of TPGnRH were added and the effect on cell viability, proliferation, cell cycle, and apoptosis was assessed on day 6. Only for the MDA-MB-231 cells, on day 4, PAX-loaded TPGnRH nanofibers containing 10 nM of PAX and 7 or 35 μM of TPGnRH were added and the effect on cell viability, proliferation, cell cycle, and apoptosis was also assessed on day 6. […] Cell metabolic activity was measured using MTT assay. […] Afterwards, dimethyl sulfoxide (100 μL) was added to the wells to dissolve the formazan crystals and the absorbance was measured at 570 and 690 nm. […] Cells were incubated with BrdU for 24 hours before the end of the pre-determined time-points. […]

Values joined by “and” are separate entries in the source; they are usually repeats but may differ in a detail not shown here. Equal entries are not always repeated. Where two headings read alike, the source gives them in different places.

As a reminder, the koff is the rate constant with which the complex falls apart. Take `CCCCCCCCCCCCCCCC(=O)Oc1ccc(C[C@H](NC(=O)[C@H](CO)NC(=O)[C@H](Cc2c[nH]c3ccccc23)NC(=O)[C@H](Cc2c[nH]cn2)NC(=O)[C@@H](N)CCC(=O)O)C(=O)NCC(=O)N[C@@H](CC(C)C)C(=O)N[C@@H](CCCNC(=N)N)C(=O)N2CCC[C@H]2C(=O)NCC(N)=O)cc1` [TPGnRH, Tyrosine (O-Palmitoyl)-Glu-GnRH]: the “Binding Force” value in experiment [1] (SEBTA-023) is recorded as 41.4 ± 3.85 pN; in experiment [1] (U-87 MG), 30.00 ± 5.57 pN; in experiment [1] (UP-007), 50.80 ± 2.88 pN; in experiment [1] (UP-029) it was 46.4 ± 9.45 pN. For the same molecule, the “Binding Probability” value in experiment [1] (SEBTA-023) was 17.04±3.1%; in experiment [1] (U-87 MG) it was 13.2±0.9% and 13.2 ± 1.64%; in experiment [1] (UP-007), 20.5±5.8%; in experiment [1] (UP-029), 9.5±2.5% and 9.51 ± 2.53%. Also, the koff in experiment [1] (SEBTA-023) was found to be 2.49 ± 0.12 s⁻¹; in experiment [1] (U-87 MG), 0.89 ± 0.1 s⁻¹; in experiment [1] (UP-007), 1.23 ± 0.13 s⁻¹; in experiment [1] (UP-029), 2.03 ± 4.14 s⁻¹. In the experiment on U-87 MG cells, the effect on apoptosis result is recorded as “trigger apoptosis”.
